# Results: patent publication US20240033232A1, “New use of (R)-B2-agonists in treatment of sepsis and acute respiratory distress syndrome” (priority 2021, published 2024)
# Columns and labels:
# [1] = test system: patients with acute respiratory distress Syndrome (ARDS) caused by sepsis; settings: cited from earlier work
# [2] = test system: sepsis and sepsis related ARDS; experiment: Overall effect on sepsis and sepsis related ARDS; settings: in vivo
# [3] = test system: inducible NO (iNO) and another ROS; experiment: Inducible NO, ROS and coagulation disorder induced by LPS sepsis
# [4] = test system: tissue of lung, heart or kidney; experiment: Pathological examination of organs in sepsis; format: in vivo
# [5] = test system: macrophages from the peritoneal fluid; experiment: LPS induced proliferation and polarization of macrophages from the peritoneal fluid; format: in vivo; settings: for polarized M1 macrophages or M2 macrophages: in comparison of sepsis condition
# [6] = test system: sepsis by high doses LPS challenge; experiment: LPS sepsis, mortality of mice; format: in vivo; settings: for survival: high doses LPS challenge; for mortality: high doses LPS challenge (100% mortality without treatment)
# [7] = test system: INFs, IL-1B, IL-2,4,6,10,12, TNFa and MCP; experiment: Cytokine storm in sepsis, production and release of cytokines
# [8] = test system: inflammatory cells, such as WBC, neutrophils and monocytes; experiment: Systemic inflammatory cells in sepsis; format: in vivo
# [9] = test system: bronchial hyper-responsiveness induced by LPS sepsis; experiment: Lung function and bronchial hyper-responsiveness in LPS sepsis; format: in vivo; settings: for bronchial hyper-responsiveness: induced by LPS sepsis
# NF-κB and MARK pathways = NF-κB and MARK pathways activated by LPS in sepsis
SMILES,effect on sepsis and sepsis related ARDS [2],coagulating system disorder such as disseminated intravascular coagulation (DIC) [3],over production of inducible NO (iNO) and another ROS [3],"pathological changes (inflammatory infiltration, edema, lesions, apoptosis) in lung, heart or kidney [4]",polarized M1 macrophages or M2 macrophages [5],survival [6],mortality [6],production and release of cytokines [7],"increase of inflammatory cells (WBC, neutrophils, monocytes) [8]",bronchial hyper-responsiveness [9],NF-κB and MARK pathways (expression or phosphorylation) (NF-κB and MARK pathways),other results
CC(C)(C)NCC(O)c1ccc(O)c(CO)c1 (racemic) [salbutamol],–,–,–,–,–,–,–,–,–,–,–,ICU mortality and hospital mortality in comparing with placebo [1]: significantly increased; increase of mortality in comparing with placebo ([1]; salbutamol infusion): 11%
CC(C)(C)NC[C@H](O)c1ccc(O)c(CO)c1 [(R)-salbutamol],very effective,prevent,significantly prevent and inhibit,greatly ameliorated and improved,significant reduction,most of animal survived,greatly reduced,significantly reduced,significantly inhibite,–,–,number of macrophages from the peritoneal fluid ([5]; LPS induced): significantly reduced toward normal level
CC(C)(C)NC[C@H](O)c1cc(O)cc(O)c1 [(R)-terbutaline],very effective,prevent,significantly prevent and inhibit,greatly ameliorated and improved,–,most of animal survived,greatly reduced,significantly reduced,significantly inhibite,significantly ameliorated,significantly inhibited,arterial oxygenation ([9]; sepsis): maintain a normal arterial oxygenation; deterioration of lung function ([9]; sepsis): prevent or restored the deterioration
CC(C)(C)NC[C@@H](O)c1ccc(O)c(CO)c1 [(S)-salbutamol],increase the risk of sepsis or worsen sepsis,–,–,further worsened,–,–,–,–,–,–,–,–
OCc1cc([C@H](O)CNCCCCCCOCCCCc2ccccc2)ccc1O [(S)-salmeterol],–,–,–,–,further increased,–,–,–,–,–,–,–
CC(C)(C)NC[C@@H](O)c1cc(O)cc(O)c1 [(S)-terbutaline],increase the risk of sepsis or worsen sepsis,–,–,further worsened,–,–,–,–,further increased,further worsened,further enhanced,–
